Measurements taken from patent US9328090B2, “Arylethynyl derivatives” (Hoffmann-La Roche Inc., priority 2012, dated 2016).

Biological target: T1, human mGlu5a receptor (Homo sapiens, UniProt P41594)
T1 construct: expressed in transfected cells; host or cells: HEK-293 (monoclonal, stably transfected)
Assay: Intracellular Ca2+ mobilization assay (mGlu5 PAM)
Type: cell-based
Conditions: for EC50: HEK-293 cells stably transfected with human mGlu5a, L-glutamate added at EC20; for Efficacy [%]: maximal response in % of the maximal stimulatory effect obtained with saturating L-glutamate
Experimental: A monoclonal HEK-293 cell line stably transfected with a cDNA encoding for the human mGlu5a receptor was generated; for the work with mGlu5 Positive Allosteric Modulators (PAMs), a cell line with low receptor expression levels and low constitutive receptor activity was selected to allow the differentiation of agonistic versus PAM activity. Cells were cultured according to standard protocols (Freshney, 2000) in Dulbecco's Modified Eagle Medium with high glucose supplemented with 1 mM glutamine, 10% (vol/vol) heat-inactivated bovine calf serum, Penicillin/Streptomycin, 50 μg/ml hygromycin and 15 μg/ml blasticidin (all cell culture reagents and antibiotics from Invitrogen, Basel, Switzerland).
About 24 hrs before an experiment, 5×10^4 cells/well were seeded in poly-D-lysine coated, black/clear-bottomed 96-well plates. The cells were loaded with 2.5 μM Fluo-4AM in loading buffer (1×HBSS, 20 mM HEPES) for 1 hr at 37° C. and washed five times with loading buffer. The cells were transferred into a Functional Drug Screening System 7000 (Hamamatsu, Paris, France), and 11 half logarithmic serial dilutions of test compound at 37° C. were added and the cells were incubated for 10-30 min. with on-line recording of fluorescence. Following this pre-incubation step, the agonist L-glutamate was added to the cells at a concentration corresponding to EC20 (typically around 80 μM) with on-line recording of fluorescence; in order to account for day-to-day variations in the responsiveness of cells, the EC20 of glutamate was determined immediately ahead of each experiment by recording of a full dose-response curve of glutamate.
Responses were measured as peak increase in fluorescence minus basal (i.e. fluorescence without addition of L-glutamate), normalized to the maximal stimulatory effect obtained with saturating concentrations of L-glutamate. Graphs were plotted with the % maximal stimulatory using XLfit, a curve fitting program that iteratively plots the data using Levenburg Marquardt algorithm. The single site competition analysis equation used was y=A+((B−A)/(1+((x/C)D))), where y is the % maximal stimulatory effect, A is the minimum y, B is the maximum y, C is the EC50, x is the log 10 of the concentration of the competing compound and D is the slope of the curve (the Hill Coefficient). From these curves the EC50 (concentration at which half maximal stimulation was achieved), the Hill coefficient as well as the maximal response in % of the maximal stimulatory effect obtained with saturating concentrations of L-glutamate were calculated.
A depression of the signal observed after addition of the EC20 concentration of L-glutamate was indicative of an inhibitory activity of the test compound.

T1 sequence (P41594 21-1180 isoform P41594-2 limits assumed): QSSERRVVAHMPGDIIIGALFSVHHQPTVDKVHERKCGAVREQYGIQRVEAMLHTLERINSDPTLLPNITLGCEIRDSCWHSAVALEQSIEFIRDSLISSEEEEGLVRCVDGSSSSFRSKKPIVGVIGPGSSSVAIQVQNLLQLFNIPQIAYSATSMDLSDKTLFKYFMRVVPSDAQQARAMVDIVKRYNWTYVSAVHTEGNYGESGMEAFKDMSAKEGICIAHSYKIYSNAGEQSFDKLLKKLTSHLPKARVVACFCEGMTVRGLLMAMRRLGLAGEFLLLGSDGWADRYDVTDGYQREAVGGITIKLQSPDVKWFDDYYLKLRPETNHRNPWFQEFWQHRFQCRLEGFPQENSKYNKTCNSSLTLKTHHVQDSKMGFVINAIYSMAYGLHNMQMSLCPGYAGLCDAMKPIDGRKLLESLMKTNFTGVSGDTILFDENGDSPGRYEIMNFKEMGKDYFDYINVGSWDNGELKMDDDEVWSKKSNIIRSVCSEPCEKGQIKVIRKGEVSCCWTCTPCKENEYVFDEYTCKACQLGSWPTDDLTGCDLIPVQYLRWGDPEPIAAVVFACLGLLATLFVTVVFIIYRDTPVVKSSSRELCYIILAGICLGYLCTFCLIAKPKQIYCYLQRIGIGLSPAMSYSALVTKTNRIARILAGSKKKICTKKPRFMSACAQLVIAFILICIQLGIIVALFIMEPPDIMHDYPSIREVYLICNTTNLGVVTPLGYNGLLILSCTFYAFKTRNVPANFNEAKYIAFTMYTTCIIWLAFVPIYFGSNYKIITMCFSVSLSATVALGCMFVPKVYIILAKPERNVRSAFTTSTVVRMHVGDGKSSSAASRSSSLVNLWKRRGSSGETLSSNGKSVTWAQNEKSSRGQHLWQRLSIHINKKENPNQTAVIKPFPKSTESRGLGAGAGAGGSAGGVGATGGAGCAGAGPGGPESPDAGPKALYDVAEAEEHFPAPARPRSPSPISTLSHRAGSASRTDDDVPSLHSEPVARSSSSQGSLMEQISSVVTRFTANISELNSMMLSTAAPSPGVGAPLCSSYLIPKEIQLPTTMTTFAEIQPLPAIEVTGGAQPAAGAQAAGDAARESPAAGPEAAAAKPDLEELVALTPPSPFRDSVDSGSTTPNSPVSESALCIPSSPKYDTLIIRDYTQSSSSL

## O=C1C[C@H]2CCC[C@H]2N1c1ccc(C#Cc2ccccc2)cn1 [Example 1, (3aR,6aR)-1-(5-(phenylethynyl)pyridin-2-yl)hexahydrocyclopenta[b]pyrrol-2(1H)-one]
  EC50: 10 nM
  Efficacy [%]: 45%

## O=C1C[C@H]2CCC[C@H]2N1c1ccc(C#Cc2cccc(F)c2)cn1 [Example 2, (3aR,6aR)-1-(5-((3-Fluorophenyl)ethynyl)pyridin-2-yl)hexahydrocyclopenta[b]pyrrol-2(1H)-one]
  EC50: 10 nM
  Efficacy [%]: 48%

## O=C1C[C@H]2CCC[C@H]2N1c1ccc(C#Cc2ccc(F)cc2)cn1 [Example 3, (3aR,6aR)-1-(5-((4-Fluorophenyl)ethynyl)pyridin-2-yl)hexahydrocyclopenta[b]pyrrol-2(1H)-one]
  EC50: 10 nM
  Efficacy [%]: 44%

## O=C1C[C@H]2CCC[C@H]2N1c1ccc(C#Cc2cc(F)ccc2F)cn1 [Example 4, (3aR,6aR)-1-(5-((2,5-Difluorophenyl)ethynyl)pyridin-2-yl)hexahydrocyclopenta[b]pyrrol-2(1H)-one]
  EC50: 8 nM
  Efficacy [%]: 19%

## CC1(C)CC(=O)N(c2ccc(C#Cc3ccccc3)cn2)C1 [Ref. 1 Ex. 13, reference compound]
  Efficacy [%]: 129%

## CC1(C)CC(=O)N(c2ccc(C#Cc3cccc(F)c3)cn2)C1 [Ref. 1 Ex. 40, reference compound]
  Efficacy [%]: 100%

## O=C1CC2(CCCC2)CN1c1ccc(C#Cc2ccccc2)cn1 [Ref. 1 Ex. 59, reference compound]
  Efficacy [%]: 81%
